Results reported in publication PMC4005788 (Nature medicine, 2013).

Columns and labels:
NG108-cl cells = test: Clomeleon assay of [Cl−]i in NG108-cl cells; format: cell-based
PNI rats = test: Paw withdrawal threshold; format: in vivo, rat
KCC2 [1] = biological target: T1, KCC2 (Rattus norvegicus, UniProt Q63633); test: Imaging of K+-driven Cl− transport; format: cell-based; details: for increase of the rate of Cl− accumulation: 25 μM, 15 mM KCl
T1 sequence (Q63633 1-1116 isoform Q63633-2): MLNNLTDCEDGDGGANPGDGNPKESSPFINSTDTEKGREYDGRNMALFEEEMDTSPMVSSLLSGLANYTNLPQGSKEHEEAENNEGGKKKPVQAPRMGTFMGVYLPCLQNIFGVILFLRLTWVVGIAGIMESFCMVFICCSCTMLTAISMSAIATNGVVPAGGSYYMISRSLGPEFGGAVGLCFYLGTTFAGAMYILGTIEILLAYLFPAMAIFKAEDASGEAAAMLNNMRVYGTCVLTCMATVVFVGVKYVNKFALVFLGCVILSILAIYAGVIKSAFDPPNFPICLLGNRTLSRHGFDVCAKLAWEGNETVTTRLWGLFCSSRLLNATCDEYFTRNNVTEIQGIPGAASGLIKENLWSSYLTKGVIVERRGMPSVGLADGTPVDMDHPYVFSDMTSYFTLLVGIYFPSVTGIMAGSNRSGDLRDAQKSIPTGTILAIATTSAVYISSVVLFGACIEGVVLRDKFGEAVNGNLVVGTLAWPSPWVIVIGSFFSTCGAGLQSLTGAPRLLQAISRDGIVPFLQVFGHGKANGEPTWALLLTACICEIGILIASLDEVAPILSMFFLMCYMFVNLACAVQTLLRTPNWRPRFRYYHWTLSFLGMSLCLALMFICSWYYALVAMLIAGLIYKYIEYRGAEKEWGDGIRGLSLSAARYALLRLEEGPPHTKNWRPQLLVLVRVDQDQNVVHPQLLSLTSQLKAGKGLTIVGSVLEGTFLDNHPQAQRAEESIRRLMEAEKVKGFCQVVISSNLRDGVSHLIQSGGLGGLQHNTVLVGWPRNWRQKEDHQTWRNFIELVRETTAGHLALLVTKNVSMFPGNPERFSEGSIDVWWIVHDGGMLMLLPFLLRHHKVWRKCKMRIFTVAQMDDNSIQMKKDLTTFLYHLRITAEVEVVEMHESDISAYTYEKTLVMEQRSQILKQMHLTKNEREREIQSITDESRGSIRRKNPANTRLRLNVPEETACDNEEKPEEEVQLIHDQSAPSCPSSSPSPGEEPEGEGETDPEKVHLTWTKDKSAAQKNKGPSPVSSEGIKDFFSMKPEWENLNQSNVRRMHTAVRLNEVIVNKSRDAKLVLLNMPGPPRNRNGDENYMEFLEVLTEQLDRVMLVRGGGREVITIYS

[2] = system: superficial dorsal horn field responses; format: in vivo, rat; details: local spinal 100 μM
rat hepatoma H4IIE cells = test: Caspase-3 activation in H4IIE cells; format: cell-based; details: 24-h exposure, up to 300 μM
other CCCs = test: Rb+ flux assay in X. laevis oocytes expressing other CCCs; format: cell-based; details: 200 nM pre-incubation
[3] = system: 55 radioligand-receptor interactions; test: Radioligand competition binding screen, whole panel; details: 10 μM CLP257, 55 interactions
[4] = system: superficial dorsal horn (SDH) neurons; test: Whole-cell recording of EGABA under Cl− load in superficial dorsal horn neurons; format: cell-based, rat; details: 25 μM, BDNF-treated and PNI slices
KCC2 [5] = biological target: T2, KCC2 (Homo sapiens, UniProt Q9H2X9); test: Rb+ flux assay in X. laevis oocytes expressing KCC2; format: cell-based; details: 200 nM pre-incubation, 45 min Rb+ influx, vs vehicle
T2 sequence (Q9H2X9 1-1139): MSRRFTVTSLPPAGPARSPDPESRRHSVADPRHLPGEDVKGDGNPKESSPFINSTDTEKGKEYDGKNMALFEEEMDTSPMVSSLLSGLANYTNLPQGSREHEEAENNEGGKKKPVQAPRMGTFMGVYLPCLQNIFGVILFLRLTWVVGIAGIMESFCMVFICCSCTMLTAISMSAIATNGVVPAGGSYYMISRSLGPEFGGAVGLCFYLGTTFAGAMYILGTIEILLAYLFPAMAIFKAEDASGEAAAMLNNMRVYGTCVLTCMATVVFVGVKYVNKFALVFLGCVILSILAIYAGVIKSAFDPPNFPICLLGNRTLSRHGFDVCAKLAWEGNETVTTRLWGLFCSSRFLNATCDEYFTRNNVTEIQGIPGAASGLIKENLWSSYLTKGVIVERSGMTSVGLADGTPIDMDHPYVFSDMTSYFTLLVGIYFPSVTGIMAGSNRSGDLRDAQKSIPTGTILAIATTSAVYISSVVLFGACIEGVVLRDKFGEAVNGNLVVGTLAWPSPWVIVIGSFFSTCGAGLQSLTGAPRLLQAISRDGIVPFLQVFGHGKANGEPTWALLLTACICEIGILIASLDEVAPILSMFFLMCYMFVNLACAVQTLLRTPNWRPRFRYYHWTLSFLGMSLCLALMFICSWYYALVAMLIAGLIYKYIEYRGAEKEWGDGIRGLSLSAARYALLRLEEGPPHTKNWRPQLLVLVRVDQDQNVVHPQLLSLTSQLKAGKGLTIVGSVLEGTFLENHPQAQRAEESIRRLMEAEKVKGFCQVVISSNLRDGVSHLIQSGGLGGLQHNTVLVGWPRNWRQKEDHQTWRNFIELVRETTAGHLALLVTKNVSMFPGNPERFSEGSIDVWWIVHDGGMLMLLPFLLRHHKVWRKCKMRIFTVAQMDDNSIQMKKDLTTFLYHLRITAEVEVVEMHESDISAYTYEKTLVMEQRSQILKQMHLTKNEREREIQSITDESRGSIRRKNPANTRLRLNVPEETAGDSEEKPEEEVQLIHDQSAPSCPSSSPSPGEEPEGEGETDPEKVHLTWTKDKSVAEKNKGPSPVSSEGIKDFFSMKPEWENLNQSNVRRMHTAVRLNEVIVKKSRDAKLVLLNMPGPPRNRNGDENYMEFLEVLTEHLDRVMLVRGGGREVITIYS

[6] = biological target: recombinant α1β2γ2 GABAA receptors (Homo sapiens, UniProt P14867+P18507+P47870); test: GABAA receptor automated whole cell patch-clamp in CHO cells; format: cell-based; details: 50 μM CLP257, CHO cells
Metabolite analyses = format: in vivo; details: not shown
KCC2 [7] = biological target: T1, KCC2; test: Cell surface biotinylation and immunoblot of KCC2 in BDNF-treated spinal slices; format: cell-based; details: 100 μM, BDNF-pretreated slices
hERG channel = hERG channel (Homo sapiens, UniProt Q12809); test: hERG inhibition of tail current, automated patch-clamp; format: cell-based
GABAA receptor = test: Evoked GABAA currents in SDH neurons with VU0240551; format: cell-based, rat; details: acute application, 25 and 100 μM, in the presence of VU0240551
HEK293-cl cells = test: Clomeleon assay of [Cl−]i in HEK293-cl cells; format: cell-based, Human; details: HEK293-cl cells (no KCC2; express NKCC1, KCC1, KCC3, KCC4)
[8] = Pharmacokinetic analysis in rats; format: in vivo; details: rat
rats = test: Accelerating rotorod assay; format: in vivo, rat; details: equipotent oral doses, 2 h post-dose
[9] = [Cl−]i reduction, clomeleon assay, 5 h exposure
[10] = 5 h, [Cl−]i reduction, clomeleon assay, 5 h exposure

hERG channel, sequence (Q12809 whole entry): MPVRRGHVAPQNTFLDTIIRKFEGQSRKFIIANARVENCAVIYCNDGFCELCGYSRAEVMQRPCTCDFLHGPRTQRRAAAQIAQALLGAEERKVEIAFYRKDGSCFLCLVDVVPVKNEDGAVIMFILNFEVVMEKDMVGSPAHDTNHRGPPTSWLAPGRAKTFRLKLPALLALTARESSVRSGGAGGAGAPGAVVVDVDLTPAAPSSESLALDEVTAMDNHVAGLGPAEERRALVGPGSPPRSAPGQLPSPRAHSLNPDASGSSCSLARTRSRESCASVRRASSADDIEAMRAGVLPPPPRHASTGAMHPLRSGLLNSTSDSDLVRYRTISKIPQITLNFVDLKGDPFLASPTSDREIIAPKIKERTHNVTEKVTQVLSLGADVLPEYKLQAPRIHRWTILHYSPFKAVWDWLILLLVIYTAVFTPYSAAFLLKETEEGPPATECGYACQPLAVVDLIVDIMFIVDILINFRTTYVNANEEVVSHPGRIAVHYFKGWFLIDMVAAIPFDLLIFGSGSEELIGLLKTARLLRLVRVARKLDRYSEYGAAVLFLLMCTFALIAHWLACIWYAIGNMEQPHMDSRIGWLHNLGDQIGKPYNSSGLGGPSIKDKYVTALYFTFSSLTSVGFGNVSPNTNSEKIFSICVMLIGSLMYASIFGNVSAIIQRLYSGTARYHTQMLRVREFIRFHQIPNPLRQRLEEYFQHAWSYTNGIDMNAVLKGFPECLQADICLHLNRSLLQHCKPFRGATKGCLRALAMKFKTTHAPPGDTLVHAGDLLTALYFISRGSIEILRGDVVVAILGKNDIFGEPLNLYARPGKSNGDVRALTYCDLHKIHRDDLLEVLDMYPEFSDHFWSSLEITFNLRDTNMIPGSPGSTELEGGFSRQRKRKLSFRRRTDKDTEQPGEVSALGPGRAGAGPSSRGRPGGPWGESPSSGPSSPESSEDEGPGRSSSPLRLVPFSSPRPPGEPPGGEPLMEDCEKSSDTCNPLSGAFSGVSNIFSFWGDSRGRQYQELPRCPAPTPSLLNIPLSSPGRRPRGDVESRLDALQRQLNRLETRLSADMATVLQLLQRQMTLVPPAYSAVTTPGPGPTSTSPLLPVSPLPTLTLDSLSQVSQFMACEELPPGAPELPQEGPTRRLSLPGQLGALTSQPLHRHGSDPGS
recombinant α1β2γ2 GABAA receptors, sequence (P14867 28-456): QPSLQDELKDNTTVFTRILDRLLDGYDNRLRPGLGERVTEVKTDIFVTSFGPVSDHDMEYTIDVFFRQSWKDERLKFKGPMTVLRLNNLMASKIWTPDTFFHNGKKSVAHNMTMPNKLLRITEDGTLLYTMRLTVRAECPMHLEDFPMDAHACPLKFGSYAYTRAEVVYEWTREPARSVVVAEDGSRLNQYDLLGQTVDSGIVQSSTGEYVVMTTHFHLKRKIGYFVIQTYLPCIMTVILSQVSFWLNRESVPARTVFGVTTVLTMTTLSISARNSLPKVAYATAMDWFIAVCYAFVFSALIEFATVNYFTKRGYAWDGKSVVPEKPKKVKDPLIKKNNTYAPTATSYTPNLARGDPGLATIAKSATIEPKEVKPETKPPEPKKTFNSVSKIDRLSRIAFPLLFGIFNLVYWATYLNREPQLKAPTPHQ
recombinant α1β2γ2 GABAA receptors, sequence (P47870 25-512 limits assumed): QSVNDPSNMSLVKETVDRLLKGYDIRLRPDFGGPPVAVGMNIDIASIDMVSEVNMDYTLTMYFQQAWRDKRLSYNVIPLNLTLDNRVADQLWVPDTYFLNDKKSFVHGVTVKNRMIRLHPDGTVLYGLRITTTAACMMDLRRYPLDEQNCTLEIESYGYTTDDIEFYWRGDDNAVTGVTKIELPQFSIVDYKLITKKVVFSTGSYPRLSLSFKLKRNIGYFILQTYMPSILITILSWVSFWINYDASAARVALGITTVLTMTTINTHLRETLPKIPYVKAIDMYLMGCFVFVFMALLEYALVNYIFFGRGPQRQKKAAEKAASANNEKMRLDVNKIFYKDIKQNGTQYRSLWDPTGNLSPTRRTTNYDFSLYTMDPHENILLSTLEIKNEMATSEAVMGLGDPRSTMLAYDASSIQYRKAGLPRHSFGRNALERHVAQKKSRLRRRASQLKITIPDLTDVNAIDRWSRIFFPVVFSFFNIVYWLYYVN
recombinant α1β2γ2 GABAA receptors, sequence (P18507 40-475): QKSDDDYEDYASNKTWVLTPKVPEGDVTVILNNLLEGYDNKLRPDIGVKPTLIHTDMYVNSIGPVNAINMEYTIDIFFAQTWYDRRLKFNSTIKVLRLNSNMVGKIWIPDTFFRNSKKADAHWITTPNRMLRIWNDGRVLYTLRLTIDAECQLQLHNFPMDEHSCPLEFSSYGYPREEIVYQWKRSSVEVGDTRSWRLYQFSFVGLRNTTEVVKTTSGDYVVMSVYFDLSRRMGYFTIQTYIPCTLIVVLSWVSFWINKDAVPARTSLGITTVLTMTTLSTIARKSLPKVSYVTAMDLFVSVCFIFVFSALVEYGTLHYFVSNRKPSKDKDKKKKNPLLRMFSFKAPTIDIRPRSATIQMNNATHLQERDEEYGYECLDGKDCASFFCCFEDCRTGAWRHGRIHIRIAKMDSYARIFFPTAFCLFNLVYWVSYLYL

## O=C1N=C(N2CCCCC2)S/C1=C\c1ccccc1O [CL-058, (5Z)-5-[(2-hydroxyphenyl)methylidene]-2-(piperidin-1-yl)-4,5-dihydro-1,3-thiazol-4-one]
NG108-cl cells; [9]
  EC50: 31.5 µM

## O=C1N=C(N2CCCCN2)S/C1=C\c1ccc(F)cc1O [CLP257, (5Z)-2-(1,2-diazinan-1-yl)-5-[(4-fluoro-2-hydroxyphenyl)methylidene]-4,5-dihydro-1,3-thiazol-4-one]
PNI rats; IP
  maximal analgesic effect compared with Gabapentin: much weaker than that of Gabapentin
PNI rats; IP, peaking at 100 mg kg^−1, 2 h post-injection
  mechanical withdrawal thresholds: increased withdrawal thresholds
KCC2 [1]; BDNF-treated spinal slices
  increase of the rate of Cl− accumulation: 26%
KCC2 [1]; PNI spinal slices
  increase of the rate of Cl− accumulation: 45%
KCC2 [1]; 100 μM, BDNF-treated slices
  Cl− transport: completely restored Cl^− transport to control levels
[2]; animals with nerve injury (PNI)
  evoked field responses: renormalized
[2]; naïve animals, 2.5 to 135 g (mm^2)^−1
  effect on the stimulus-response relationship of evoked field responses: no effect
Rat hepatoma H4IIE cells
  Caspase-3 activation: not detected
Other CCCs
  change of transport activity (Rb+ influx) in other CCCs: no change
[3]
  inhibition of radioligand-receptor interactions, maximum over the panel: ≤ 30%
[4]
  EGABA (reversal potential for GABAA currents): hyperpolarized
KCC2 [5]
  increase of KCC2 transport activity (Rb+ influx): 61%
[6]
  agonist effect relative to the effect of 5 μM muscimol: < 0.2%
NG108-cl cells; [10]
  EC50: 0.616 µM
NG108-cl cells; NG108-cl cells
  Maximal [Cl−]i reduction: ~ 40%
NG108-cl cells; at maximal effect
  drop from resting [Cl−]i of 57 mM: 23 mM
Metabolite analyses
  metabolism of the hydroxyl moiety: rapidly undergoes glucuronidation
KCC2 [7]
  cell surface expression of KCC2 monomers and dimers: increased
  total KCC2 expression: not significantly affected
hERG channel
  IC50: 449 µM
GABAA receptor
  effect on evoked GABAA currents: no effect
HEK293-cl cells
  change in [Cl−]i: no change
[8]; male, Sprague-Dawley, plasma
  half-life: < 15 min

## O=C1N=C(N2CCCCN2)S/C1=C\c1ccc(F)cc1OC(=O)N1CCCC1 [CLP290, 2-{[(5Z)-2-(1,2-diazinan-1-yl)-4-oxo-4,5-dihydro-1,3-thiazol-5-ylidene]methyl}-5-fluorophenyl pyrrolidine-1-carboxylate]
PNI rats; PO, 100 mg kg^−1 vs Pregabalin 30 mg kg^−1
  maximal oral analgesic efficacy: equivalent to that of Pregabalin
hERG channel
  IC50: 224 µM
rats
  motor function on accelerating rotorod: no effect
[8]; analyte CLP257 after CLP290
  maximal plasma concentration and exposure of CLP257 vs native CLP257: improved maximal plasma concentration and exposure

## Oc1cc(F)ccc1/C=C1\SC(N2CCCCN2)=NC1=S [CLP355, (5Z)-2-(1,2-diazinan-1-yl)-5-[(4-fluoro-2-hydroxyphenyl)methylidene]-4,5-dihydro-1,3-thiazole-4-thione]
NG108-cl cells; [10]
  EC50: 0.05 µM

## O=C1N=C(N2CCCCN2)S/C1=C\c1ccc(F)cc1OC1OC(C(=O)O)C(O)C(O)C1O (centres unmarked) [CLP386, 6-(2-{[(5Z)-2-(1,2-diazinan-1-yl)-4-oxo-4,5-dihydro-1,3-thiazol-5-ylidene]methyl}-5-fluorophenoxy)-3,4,5-trihydroxyoxane-2-carboxylic acid]
NG108-cl cells; [9]
  EC50 (μM): inactive

## CC(C)C[C@H](CN)CC(=O)O [Pregabalin, reference compound]
rats
  motor function on accelerating rotorod: depressed motor function

## Cc1csc(NC(=O)CSc2ccc(-c3ccccc3)nn2)n1 [VU0240551, reference compound]
NG108-cl cells; CLP257 500 nM, 5 h exposure
  antagonism of the [Cl−]i response to CLP257: dose-dependent antagonism
